Target: T1, human histamine H4 receptor (Homo sapiens, UniProt Q9H3N8)
T1 construct: expressed in transfected cells; host or cells: SK-N-MC cells or COS7 cells, transient transfection with pH4R; cell membranes
Assay: Binding Assay on Recombinant Human Histamine H4 Receptor
Settings: competition binding with 3H-histamine (5 nM; KD 5 nM), membranes of SK-N-MC or COS7 cells expressing human H4 receptor; average of results; > = highest value tested
Description: Biological Methods: Binding Assay on Recombinant Human Histamine H4 Receptor
SK-N-MC cells or COS7 cells were transiently transfected with pH4R and grown in 150 cm^2 tissue culture dishes. Cells were washed with saline solution, scraped with a cell scraper and collected by centrifugation (1000 rpm, 5 min). Cell membranes were prepared by homogenization of the cell pellet in 20 mM Tris-HCl with a polytron tissue homogenizer for 10 sec at high speed. Homogenate was centrifuged at 1000 rpm for 5 min at 4° C. The supernatant was then collected and centrifuged at 20,000×g for 25 min at 4° C. The final pellet was resuspended in 50 mM Tris-HCl. Cell membranes were incubated with ^3H-histamine (5-70 nM) in the presence or absence of excess histamine (10,000 nM). Incubation occurred at room temperature for […]. Membranes were harvested by rapid filtration over Whatman GF/C filters and washed 4 times with ice-cold 50 mM Tris HCl. Filters were then dried, mixed with scintillant and counted for radioactivity. SK-N-MC or COS7 cells expressing human histamine H4 receptor were used to measure the affinity of binding of other compounds and their ability to displace ^3H-ligand binding by incubating the above-described reaction in the presence of various concentrations of inhibitor or compound to be tested. For competition binding studies using ^3H-histamine, Ki values were calculated, based on an experimentally determined KD value of 5 nM and a ligand concentration of 5 nM, according to Y.-C.

Compound | Ki [nM]
Cc1cccc2[nH]c(-c3ccc4c(ccn4CCCC4CCN(C)CC4)c3)nc12 [Example 12, 4-Methyl-2-{1-[3-(1-methyl-piperidin-4-yl)-propyl]-1H-indol-5-yl}-1H-benzoimidazole] | 120
Cc1c(F)ccc2[nH]c(-c3ccc4c(ccn4CCCN4CCN(C)CC4)c3)nc12 [Example 13, 5-Fluoro-4-methyl-2-{1-[3-(4-methyl-piperazin-1-yl)-propyl]-1H-indol-5-yl}-1H-benzoimidazole] | 168
Cc1cc(C)c2nc(-c3ccc4c(c3)c(C)c(C)n4CCCC3CCN(C)CC3)[nH]c2c1 [Example 14, 2-{2,3-Dimethyl-1-[3-(1-methyl-piperidin-4-yl)-propyl]-1H-indol-5-yl}-4,6-dimethyl-1H-benzoimidazole] | 84
CN1CCC(CCCCn2ccc3c(-c4nc5c(Cl)cccc5[nH]4)cccc32)CC1 [Example 17, 4-Chloro-2-{1-[4-(1-methyl-piperidin-4-yl)-butyl]-1H-indol-4-yl}-1H-benzoimidazole] | 58
CN1CCC(CCCCn2ccc3c(-c4nc5cc(C(F)(F)F)ccc5[nH]4)cccc32)CC1 [Example 18, 2-{1-[4-(1-Methyl-piperidin-4-yl)-butyl]-1H-indol-4-yl}-5-trifluoromethyl-1H-benzoimidazole] | 85
CN1CCC(CCCCn2ccc3c(-c4nc5cc6c(cc5[nH]4)OCO6)cccc32)CC1 [Example 19, 6-{1-[4-(1-Methyl-piperidin-4-yl)-butyl]-1H-indol-4-yl}-5H-[1,3]dioxolo[4′,5′:4,5]benzo[1,2-d] imidazole] | 404
CN1CCC(CCCCn2ccc3c(-c4nc5cc(C(=O)c6ccccc6)ccc5[nH]4)cccc32)CC1 [Example 20, (2-{1-[4-(1-Methyl-piperidin-4-yl)-butyl]-1H-indol-4-yl}-1H-benzoimidazol-5-yl)-phenyl-methanone] | 619
CN1CCC(CCCCn2ccc3c(-c4nc5cc6ccccc6cc5[nH]4)cccc32)CC1 [Example 21, 2-{1-[4-(1-Methyl-piperidin-4-yl)-butyl]-1H-indol-4-yl}-1H-naphtho[2,3-d]imidazole] | 187
Cc1cc(Cl)cc2[nH]c(-c3cccc4c3ccn4CCCCC3CCN(C)CC3)nc12 [Example 22, 6-Chloro-4-methyl-2-{1-[4-(1-methyl-piperidin-4-yl)-butyl]-1H-indol-4-yl}-1H-benzoimidazole] | 105
Cc1cccc2[nH]c(-c3cccc4c3ccn4CCCCC3CCN(C)CC3)nc12 [Example 23, 4-Methyl-2-{1-[4-(1-methyl-piperidin-4-yl)-butyl]-1H-indol-4-yl}-1H-benzoimidazole] | 98
CN1CCC(CCCCn2ccc3c(-c4nc5cc(C(C)(C)C)ccc5[nH]4)cccc32)CC1 [Example 24, 5-tert-Butyl-2-{1-[4-(1-methyl-piperidin-4-yl)-butyl]-1H-indol-4-yl}-1H-benzoimidazole] | 40
Cc1cc(C)c2nc(-c3ccc4ccn(CCCCC5CCN(C)CC5)c4c3)[nH]c2c1 [Example 25, 4,6-Dimethyl-2-{1-[4-(1-methyl-piperidin-4-yl)-butyl]-1H-indol-6-yl}-1H-benzoimidazole] | 350
Cc1cccc2[nH]c(-c3ccc4ccn(CCCCC5CCN(C)CC5)c4c3)nc12 [Example 27, 4-Methyl-2-{1-[4-(1-methyl-piperidin-4-yl)-butyl]-1H-indol-6-yl}-1H-benzoimidazole] | 750
CN1CCC(CCCn2cc(Cl)c3cc(-c4nc5cc(C(C)(C)C)ccc5[nH]4)ccc32)CC1 [Example 28, 5-tert-Butyl-2-{3-chloro-1-[3-(1-methyl-piperidin-4-yl)-propyl]-1H-indol-5-yl}-1H-benzoimidazole] | 349
Cc1cc(Cl)cc2[nH]c(-c3ccc4c(c3)c(Cl)cn4CCCC3CCN(C)CC3)nc12 [Example 29, 6-Chloro-2-{3-chloro-1-[3-(1-methyl-piperidin-4-yl)-propyl]-1H-indol-5-yl}-4-methyl-1H-benzoimidazole] | 1670
CN1CCC(CCCCn2cc(Cl)c3c(-c4nc5cc(C(F)(F)F)ccc5[nH]4)cccc32)CC1 [Example 30, 2-{3-Chloro-1-[4-(1-methyl-piperidin-4-yl)-butyl]-1H-indol-4-yl}-5-trifluoromethyl-1H-benzoimidazole] | 47
CN1CCC(CCCCn2cc(Cl)c3c(-c4nc5cc(F)c(F)cc5[nH]4)cccc32)CC1 [Example 32, 2-{3-Chloro-1-[4-(1-methyl-piperidin-4-yl)-butyl]-1H-indol-4-yl}-5,6-difluoro-1H-benzoimidazole] | 599
Cc1c(F)ccc2[nH]c(-c3ccc4c(ccn4CCCN4CCNCC4)c3)nc12 [Example 33, 5-Fluoro-4-methyl-2-[1-(3-piperazin-1-yl-propyl)-1H-indol-5-yl]-1H-benzoimidazole] | 1290

Second part, the compound after the results:

Ki [nM] | Compound
29 | Cc1c(-c2nc3c(C)c(F)ccc3[nH]2)ccc2c1CCN2CCCC1CCN(C)CC1 [Example 1, 5-Fluoro-4-methyl-2-{4-methyl-1-[3-(1-methyl-pieridin-4-yl)-proyl]-2,3-dihydro-1H-indol-5-yl}-1H-benzoimidazole]
15 | Cc1ccc2[nH]c(-c3ccc4c(c3C)CCN4CCCC3CCN(C)CC3)nc2c1C [Example 2, 4,5-Dimethyl-2-{4-methyl-1-[3-(1-methyl-piperidin-4-yl)-propyl]-2,3-dihydro-1H-indol-5-yl}-1H-benzoimidazole]
33 | Cc1cc(C)c2nc(-c3ccc4c(c3Cl)CCN4CCCC3CCN(C)CC3)[nH]c2c1 [Example 3, 2-{4-Chloro-1-[3-(1-methyl-piperidin-4-yl)-propyl]-2,3-dihydro-1H-indol-5-yl}-4,6-dimethyl-1H-benzoimidazole]
34 | Cc1c(F)ccc2[nH]c(-c3ccc4c(c3Cl)CCN4CCCC3CCN(C)CC3)nc12 [Example 4, 2-{4-Chloro-1-[3-(1-methyl-piperidin-4-yl)-propyl]-2,3-dihydro-1H-indol-5-yl}-5-fluoro-4-methyl-1H-benzoimidazole]
76 | COC(=O)c1ccc2[nH]c(-c3ccc4c(c3Cl)CCN4CCCC3CCN(C)CC3)nc2c1 [Example 5, 2-{4-Chloro-1-[3-(1-methyl-piperidin-4-yl)-propyl]-2,3-dihydro-1H-indol-5-yl}-1H-benzoimidazole-5-carboxylic acid methyl ester]
123 | Cc1c(F)ccc2[nH]c(-c3ccc4c(c3F)CCN4CCCC3CCN(C)CC3)nc12 [Example 6, 5-Fluoro-2-{4-fluoro-1-[3-(1-methyl-piperidin-4-yl)-propyl]-2,3-dihydro-1H-indol-5-yl}-4-methyl-1H-benzoimidazole]
29 | Cc1c(-c2nc3c(C)c(F)ccc3[nH]2)ccc2c1ccn2CCCC1CCN(C)CC1 [Example 7, 5-Fluoro-4-methyl-2-{4-methyl-1-[3-(1-methyl-piperidin-4-yl)-propyl]-1H-indol-5-yl}-1H-benzoimidazole]
29 | Cc1c(F)ccc2[nH]c(-c3ccc4c(ccn4CCCC4CCN(C)CC4)c3Cl)nc12 [Example 8, 2-{4-Chloro-1-[3-(1-methyl-piperidin-4-yl)-propyl]-1H-indol-5-yl}-5-fluoro-4-methyl-1H-benzoimidazole]
14 | Cc1cc(C)c2nc(-c3ccc4c(ccn4CCCC4CCN(C)CC4)c3Cl)[nH]c2c1 [Example 9, 2-{4-Chloro-1-[3-(1-methyl-piperidin-4-yl)-propyl]-1H-indol-5-yl}-4,6-dimethyl-1H-benzoimidazole]
19 | Cc1c(-c2nc3cc(Cl)ccc3[nH]2)ccc2c1ccn2CCCC1CCN(C)CC1 [Example 10, 5-Chloro-2-{4-methyl-1-[3-(1-methyl-piperidin-4-yl)-propyl]-1H-indol-5-yl}-1H-benzoimidazole]
77 | Cc1c(F)ccc2[nH]c(-c3ccc4c(ccn4CCCC4CCN(C)CC4)c3)nc12 [Example 11, 5-Fluoro-4-methyl-2-{1-[3-(1-methyl-piperidin-4-yl)-propyl]-1H-indol-5-yl}-1H-benzoimidazole]
110 | Cc1c(C)n(CCCC2CCN(C)CC2)c2ccc(-c3nc4c(C)c(F)ccc4[nH]3)cc12 [Example 15, 2-{2,3-Dimethyl-1-[3-(1-methyl-piperidin-4-yl)-propyl]-1H-indol-5-yl}-5-fluoro-4-methyl-1H-benzoimidazole]
23 | Cc1c(F)ccc2[nH]c(-c3cccc4c3ccn4CCCCC3CCN(C)CC3)nc12 [Example 16, 5-Fluoro-4-methyl-2-{1-[4-(1-methyl-piperidin-4-yl)-butyl]-1H-indol-4-yl}-1H-benzoimidazole]
880 | Cc1c(F)ccc2[nH]c(-c3ccc4ccn(CCCCC5CCN(C)CC5)c4c3)nc12 [Example 26, 5-Fluoro-4-methyl-2-{1-[4-(1-methyl-piperidin-4-yl)-butyl]-1H-indol-6-yl}-1H-benzoimidazole]
118 | Cc1c(F)ccc2[nH]c(-c3cccc4c3c(Cl)cn4CCCCC3CCN(C)CC3)nc12 [Example 31, 2-{3-Chloro-1-[4-(1-methyl-piperidin-4-yl)-butyl]-1H-indol-4-yl}-5-fluoro-4-methyl-1H-benzoimidazole]
